Experimental data reported in PubChem BioAssay AID179 (DTP/NCI, 2004).
“And” between values parts separate entries of the source, which are not always exact repeats. Identical values can stand only once. The source made the active and inactive calls.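 The calls were made as follows: active = compounds giving half or more protection of infected cells from virus-caused growth loss, again on retest; inactive = the rest.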

Tested on: CEM cells HIV-1 protection, formazan growth assay
Experiment: NCI AIDS Antiviral Assay
Details: for IC50: measured here: growth of uninfected CEM cells
Procedure, shortened: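 Protection of CEM cells against HIV-1 measured as cell growth via soluble formazan read-out, with five concentrations tested on both infected and uninfected cells; failure to protect may reflect toxicity.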

Compound | EC50 [µM] | IC50 | outcome
CCOC(=O)c1c(-c2cccc3ccccc23)c(C#N)c(=S)n(C2OC(COC(C)=O)C(OC(C)=O)C(OC(C)=O)C2OC(C)=O)c1C (centres undefined) | > 200 | 7.76 µM | –
CCCCOC1NC(=O)NC(=O)C1(F)C(=O)OCC (centres undefined) | > 200 | 6.61 µM | –
CCCCCCCCCCCCCCCCP(=O)(O)OCC(N)C(=O)O (centres undefined) | > 200 | 95.5 µM | –
Cc1cn2cc(-c3ccncc3)nc2s1 | > 209 | 112 µM | –
O=c1ccc(=O)n(CCc2ccccn2)[nH]1 | > 200 | > 200 µM | –
NC(=O)ON=C1CCN(Cc2ccccc2)CC1 | > 200 | > 200 µM | –
CCOC(=O)NC1CN2CCC1CC2 (centres undefined) | > 200 | > 200 µM | –
O=C(NCC(=O)N1CCCC1C(=O)OC(=O)C1CCCN1C(=O)CNC(=O)OCc1ccccc1)OCc1ccccc1 (centres undefined) | > 38 | 30.2 µM | –
CCc1cccc(CC)c1NC(=O)CC1SC(N)=NC1=O (centres undefined) | > 427 | > 427 µM | –
CC(=O)Nc1ccccc1/C(C#N)=C/c1ccccc1 | > 200 | > 200 µM | –
COC(=O)C1=C(C)N2[C@H](C(=O)O)CS[C@@]2(C)[C@H](C(=O)OC)[C@H]1c1cccc([N+](=O)[O-])c1 | > 200 | 148 µM | –
Cn1c(=O)cc(C=Nc2ccc(-c3ccccc3)cc2)c2ccccc21 | > 100 | 2 µM | –
CC[C@@]1(C[C@H]2C[C@@]3(C(=O)OC)c4[nH]c5ccccc5c4CCN3C2=S)COC2(CCCCC2)O1 | > 200 | > 200 µM | –
CC(C)C(=O)/C=C/c1c(Cl)cccc1Cl | – | – | inactive
COC(=O)CN1C(=O)c2cccc3cc(N)cc(c23)C1=O | > 200 | > 200 µM | –
CSc1ncnc2c1ncn2CCC(=O)O | > 200 | > 200 µM | –
O=C1/C(=C/c2ccc(OC(=O)c3ccc(Cl)cc3)cc2)CCC/C1=C\c1ccc(OC(=O)c2ccc(Cl)cc2)cc1 | > 100 | > 100 µM | –
CCOC(=O)C1N=[N+](c2ccccc2)C(=O)/C1=C\n1c(=S)[nH]c2ccc([N+](=O)[O-])cc21 (centres undefined) | > 200 | 107 µM | –
Cc1c(N2C(=O)/C(=C/c3ccc(N(CCC#N)CCC#N)cc3)N=C2c2ccccc2)c(=O)n(-c2ccccc2)n1C | > 200 | 186 µM | –
S=C1NCCS1 | > 2090 | 1170 µM | –
COC(=O)NC(Cc1ccccc1)NC(C)=O (centres undefined) | > 200 | > 200 µM | –
Cc1cc(=O)n2nc(CSc3nnc(N)s3)sc2n1 | > 200 | > 200 µM | –

Compound | EC50 [µM] | IC50 | outcome
COc1ccc2c(c1)C1Oc3ccccc3CC1(O)CO2 (centres undefined) | > 200 | 132 µM | –
COC(=O)c1cc2c(cc1CC(Cc1ccc3c(c1)CCCC3)C(=O)OC)CCCC2 (centres undefined) | > 200 | 57.5 µM | –
COc1ccc(NS(=O)c2ccc(OC)cc2)cc1 (centres undefined) | > 200 | 15.8 µM | –
Cc1c(N=Nc2ccc(Cl)cc2)c(-c2ccccc2)n(C2OC(CO)C(O)C(O)C2O)c(=S)c1C#N (centres undefined) | > 200 | 37.2 µM | –
COC(=O)c1ccccc1C#CCCCOS(C)(=O)=O | > 200 | > 200 µM | –
O=C(Nc1nc(C23CC4CC(CC(C4)C2)C3)cs1)c1cc2cc([N+](=O)[O-])ccc2oc1=O | > 200 | 178 µM | –
CC(=O)c1ccc(NC(=O)C(=O)Nn2c(=S)[nH]c3ccccc3c2=O)cc1 | > 93.3 | > 93.3 µM | –
COC(=O)N1[C@H]2Cc3c(OC)c(C)c(OC)c(OC)c3[C@@H]1/C(=C\c1cc(OC)c(OC)c(C)c1OC)N(Cc1ccccc1)C2=O | – | – | inactive
O=C1c2ccccc2C(=O)N1C/C=N/NS(=O)(=O)c1ccc2ccccc2c1 | > 240 | > 240 µM | –
CCOC(=O)/C(C(=S)NCc1ccccc1)=C(/N)N1CCCC1 | > 200 | > 200 µM | –
CCCc1cc(=O)oc2c3c(c4c(c12)OC(C)(C)C=C4)O[C@@H](C)[C@H](C)C3=O | 4.9 | 97.7 µM | –
C/C(=N/NC(=S)N(C)C)c1ccccc1O | > 200 | 11.7 µM | –
N#CC(C#N)=CN1CCNC1=S | > 200 | > 200 µM | –
CCC(C)C(=Nc1ccc(Cl)c(Cl)c1)N(C)C (centres undefined) | – | – | inactive
O=CNNC(=O)Nc1cccc2ccccc12 | > 200 | > 200 µM | –
O=C(NNc1ccccc1)/C(=C/c1ccc2c(c1)OCO2)NC(=O)c1ccccc1 | > 12.9 | > 12.9 µM | –
CN(C)CCSc1cccc(-c2cc(-c3cccc(SCCN(C)C)c3)nc(SCCN(C)C)n2)c1 | > 457 | 0.708 µM | –
c1cncc(C2c3[nH]c4ccccc4c3CCN2CCCN2CCCCC2)c1 (centres undefined) | > 3.89 | > 3.89 µM | –
CCn1c2c(c3ccccc31)C(c1ccccc1)CC1C(=O)N(c3ccccc3)C(=O)C21 (centres undefined) | > 11.7 | > 11.7 µM | –
CC(=O)Nc1ccc(C(=O)n2[nH]c(C)c(/C=C3\C(=O)C=Cc4ccccc43)c2=O)cc1 | > 87.1 | 42.7 µM | –
CC1=NNC(=O)C1C1C=C(c2c[nH]c3ccccc23)OC1=O (centres undefined) | > 200 | 102 µM | –
COC1CC(O)C2OC(c3ccccc3)OCC2O1 (centres undefined) | – | – | inactive

Compound | EC50 [µM] | IC50 | outcome
Cc1nc2c(sc(=S)n2-c2ccccc2)c2nc3ccccc3n12 | > 2.09 | > 2.09 µM | –
CCN(CC)CC(=O)Nc1ccc(Cl)cc1C(O)c1ccccc1 (centres undefined) | > 200 | 120 µM | –
CCCCCCCCCCCCCC(=O)OCC1OC(n2cc(F)c(=O)[nH]c2=O)C(N)C(OC(=O)CCCCCCCCCCCCC)C1O (centres undefined) | > 7.41 | > 7.41 µM | –
COC(=O)C(=O)C(C(=O)C(=O)Nc1ccc([N+](=O)[O-])cc1[N+](=O)[O-])c1nc2ccc([N+](=O)[O-])cc2[nH]c1=O (centres undefined) | > 468 | 141 µM | –
Cc1ccc(NNc2cc(=O)[nH]c(=O)[nH]2)cc1Cl | > 200 | 4.68 µM | –
CCOC(=O)C(NC(=O)CC(C)C)(Nc1ccc(C(F)(F)F)cc1)C(F)(F)F (centres undefined) | > 200 | 56.2 µM | –
O=C(N/N=C/c1ccccn1)c1ccccc1[O-].O=C(N/N=C/c1ccccn1)c1ccccc1[O-].[Mn+2] | > 200 | 11.2 µM | –
CC(C)[Si]1(C(C)C)OCC2OC(N3C(=O)NC(=O)C[C@@H]3C(O)c3ccccc3)CC2O[Si](C(C)C)(C(C)C)O1 (some centres undefined) | > 200 | 10.5 µM | –
COC(=O)[C@H]1C(=CBr)[C@@H]1C(=O)OC.[C-]#[O+].[C-]#[O+].[C-]#[O+].[C-]#[O+].[Fe] | > 200 | > 200 µM | –
N#C/C(=C/n1c(=S)sc2ccccc21)c1nc2ccccc2s1 | > 200 | 102 µM | –
C=C1CC(C#N)(C#N)[C@H]2C3CCCC3C[C@@H]12 (some centres undefined) (tested in a mixture with another compound) | > 200 | 33.1 µM | –
CC(C#N)NCc1ccc(C(C)NC(C)C#N)cc1 (centres undefined) | > 200 | > 200 µM | –
CC(/C=C1\N=C(c2ccccc2)OC1=O)=C\c1ccccc1 | > 200 | 105 µM | –
c1ccc(-c2[o+]c(-c3ccccc3)c(-c3ccccc3)c(-c3ccccc3)c2-c2ccccc2)cc1 | – | – | inactive
O=C(O)c1cccc(S(=O)(=O)NN2C(=O)CSC2c2ccc(Cl)cc2Cl)c1 (centres undefined) | > 200 | 35.5 µM | –
CN1C[C@@H]2CC(=O)CC[C@@H]2C[C@H]1C#N | > 676 | 339 µM | –
O=C(O)CSc1nnc(COc2ccc(Cl)cc2)n1-c1ccccc1 | > 200 | 182 µM | –
CCOc1ccc2ccccc2c1NC1=NCCO1 | > 200 | 107 µM | –
CC(C)C(/C=C/c1ccccc1)=N\NC(=O)N/N=C(/C=C/c1ccccc1)C(C)C | > 6.76 | > 6.76 µM | –
Cc1cn(C2CC(N=[N+]=[N-])C(COC(=O)CCCCCCCCCCCCl)O2)c(=O)[nH]c1=O (centres undefined) | 0.288 | 20 µM | –
Cc1cccc(NC(=O)C(=O)C(C(=O)c2ccccc2F)C2OC(=O)c3ccccc32)c1Cl (centres undefined) | > 204 | 12 µM | –
CCC1(CC(=O)N(C)C)C=CCN(C(=O)Oc2ccccc2)C1 (centres undefined) | > 58.9 | > 58.9 µM | –

Compound | EC50 [µM] | IC50 | outcome
CC1=C[C@]2(O)C(=O)[C@H](C)C[C@H]3[C@@H](CC[C@@](C)(O)/C=C\2C1=O)C3(C)C | > 30.2 | 15.8 µM | –
O=S(=O)(Nc1ccccc1Cl)c1ccccc1 | > 200 | 83.2 µM | –
COC(=O)c1ccc2c(c1)CC1(C2)Cc2ccc3c(c2C1)CCC3 (centres undefined) | > 200 | > 200 µM | –
CC[C@@]12CCC(=O)N3CCC4(C(=C(C(=O)OC)C1)Nc1ccccc14)[C@H]32 (some centres undefined) | > 269 | 15.5 µM | –
COC(=O)c1cc(Cc2cc(Br)c(OC)c(C(=O)OC)c2)cc(Br)c1OC | > 200 | 162 µM | –
CC1(C)C=C(/C=N/Nc2ccc([N+](=O)[O-])cc2)C(C#N)=C(O)C1(C#N)C#N | > 200 | 53.7 µM | –
O=C(CSc1nnc(Cc2ccccc2)o1)Nc1ccc([N+](=O)[O-])cc1 | > 97.7 | 95.5 µM | –
COc1ccc(/C=C2/CCCC/C2=N/O)cc1 | > 295 | 182 µM | –
COc1ccc(C2=[S+]C(c3ccccc3)(c3ccccc3)c3ccccc32)cc1 | – | – | inactive
C=CCN(CC=C)C(=O)Nc1ccc(C(=O)N/N=C/c2cccc(OC)c2OC)cc1 | 89.1 | 170 µM | –
O=[N+]([O-])c1cccc2nc3ccccc3c(NCCCCNc3c4ccccc4nc4cccc([N+](=O)[O-])c34)c12 | > 0.1 | 0.0162 µM | –
COc1ccc(NCc2cc(OC)c(OC)c(OC)c2)cc1 | > 2 | 0.214 µM and 0.316 µM | –
CCOP(=O)(/C=C/c1cc(OC)ccc1OC)OCC | > 832 | 355 µM and 158 µM | –
CCOC(=O)Nc1nc2ccccc2[nH]1 | > 200 | 11.2 µM | –
C=CCCCCCCCCC/C=C1\C[C@H](O)COC1=O | > 93.3 | > 93.3 µM | –
N#CCN1CCN(CC#N)CCN(CC#N)CCN(CC#N)CC1 | > 200 | 28.2 µM | –
CC(=O)OCC(OC(C)=O)C(OC(C)=O)C(/C=N/N(C(C)=O)S(=O)(=O)c1ccc(/C=C2\NC(=O)NC2=O)cc1)OC(C)=O (centres undefined) | > 200 | 105 µM | –
CCN(CC)P1(=S)OCC(C)O1 (centres undefined) | > 324 | 309 µM | –
CC(=O)OC1C=CS(=O)(=O)C1 (centres undefined) | > 200 | 15.8 µM | –
